Data as given in PMC7532004, “Site-specific effects of neurosteroids on GABAA receptor activation and desensitization” (eLife, 2020).
Like-named read-outs stand apart in the source and are kept apart here.

Target: T1, α1β3 GABAAR WT (Homo sapiens, UniProt P14867+P28472)
T1 construct: inserted between the fourth and fifth residues of the mature peptide; photolabeling full-length heteropentameric GABAARs in native membranes; expressed in transfected cells
T1 sequence (P14867 28-456): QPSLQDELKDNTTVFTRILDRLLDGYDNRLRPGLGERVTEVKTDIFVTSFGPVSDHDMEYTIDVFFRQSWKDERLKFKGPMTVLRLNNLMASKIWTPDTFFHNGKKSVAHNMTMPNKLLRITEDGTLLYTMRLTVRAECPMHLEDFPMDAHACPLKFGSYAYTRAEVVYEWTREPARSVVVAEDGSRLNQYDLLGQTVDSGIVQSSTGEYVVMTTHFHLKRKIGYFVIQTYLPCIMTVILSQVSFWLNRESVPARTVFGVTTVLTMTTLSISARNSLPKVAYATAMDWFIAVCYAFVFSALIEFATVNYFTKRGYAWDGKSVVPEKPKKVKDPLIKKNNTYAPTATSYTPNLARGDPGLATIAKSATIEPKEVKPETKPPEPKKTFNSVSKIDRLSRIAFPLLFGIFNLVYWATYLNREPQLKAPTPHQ
T1 sequence (P28472 26-473): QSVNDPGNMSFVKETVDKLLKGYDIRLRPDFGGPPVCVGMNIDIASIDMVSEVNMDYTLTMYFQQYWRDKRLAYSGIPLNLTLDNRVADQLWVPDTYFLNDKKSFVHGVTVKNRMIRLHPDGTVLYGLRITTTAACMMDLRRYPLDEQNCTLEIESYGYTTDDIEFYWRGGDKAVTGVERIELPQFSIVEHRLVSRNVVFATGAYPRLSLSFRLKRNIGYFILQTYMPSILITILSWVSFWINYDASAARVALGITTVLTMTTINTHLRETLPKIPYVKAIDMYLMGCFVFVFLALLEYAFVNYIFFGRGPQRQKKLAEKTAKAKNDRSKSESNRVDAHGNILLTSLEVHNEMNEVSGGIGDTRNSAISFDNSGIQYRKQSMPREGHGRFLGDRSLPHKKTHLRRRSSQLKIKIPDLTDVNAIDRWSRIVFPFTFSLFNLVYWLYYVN
Assay: [3H]muscimol binding to HEK cell membranes (neurosteroid modulation and isotherms), WT receptor
Conditions: for Emax (% of control) of [3H]muscimol binding: 100% means no effect; for Bmax of [3H]muscimol binding isotherm in the presence of the modulator: etomidate 100 μM, 3α5αP 30 μM, KK148 30 μM, control 9.8 ± 0.8
Procedure: Stably transfected cells were plated into dishes. After reaching 50% confluence, GABAA receptors were expressed by inducing cells with 1 μg/ml of doxycycline with the addition of 5 mM sodium butyrate. Cells were harvested 48 to 72 hr after induction. HEK cells, after induction, were grown to 100% confluence, harvested and washed with 10 mM potassium phosphate, 100 mM potassium chloride (pH 7.5) plus protease inhibitors (Sigma-Aldrich, St. Louis, MO) two times. The cells were collected by centrifugation at 1,000 g at 4°C for 5 min. The cells were homogenized with a glass mortar and a Teflon pestle for ten strokes on ice. The pellet containing the membrane proteins was collected after centrifugation at 20,000 g at 4°C for 45 min and resuspended in a buffer containing 10 mM potassium phosphate, 100 mM potassium chloride (pH 7.5). The protein concentration was determined with micro-BCA protein assay and membranes were stored at −80°C.
[^3H]muscimol-binding assays were performed using a previously described method ([Chen et al., 2019]). […] Assay tubes were incubated for 1 hr on ice in the dark. […] Membranes were collected on Whatman/GF-C glass filter papers using a Brandel cell harvester (Gaithersburg, MD). To perform [^3H]muscimol binding isotherms, 100 μg/ml aliquots of membrane protein were incubated with 0.3 nM–1 μM [^3H]muscimol for 1 hr on ice in the dark. The specific activity for [^3H]muscimol concentrations from 30 nM to 1 μM was reduced to 2 Ci/mmol by dilution with nonradioactive muscimol. The membranes were collected on Whatman/GF-B glass filter papers using a vacuum manifold. […] For [^3H]muscimol-binding experiments examining competitive interactions between neurosteroids, the combined neurosteroids (0.3 μM 3α5αP or 3 μM KK148 ±30 μM KK150) or the same volume of dimethyl sulfoxide (DMSO) were added to the membranes which were then incubated with 3 nM [^3H]muscimol on ice for 1 hr. Time courses of neurosteroid [^3H]muscimol binding enhancement were examined by adding 10 µM of neurosteroids (3α5αP, 3β5αP) to membranes that had been fully equilibrated with 3 nM [^3H]muscimol for 1 hr on ice; binding was then measured as a function of time at 1, 3, 10, 30, 60 min. The membranes were collected on Whatman/GF-B glass filter papers using a vacuum manifold. Radioactivity bound to the filters was measured by liquid scintillation spectrometry using Bio-Safe II (Research Products International, Mount Prospect, IL).

[1] = WT α1β3, 3 nM [3H]muscimol, 1 hr on ice, read-out: EC50 for modulation of [3H]muscimol binding

| Compound | Hill slope for modulation of [3H]muscimol binding (WT α1β3, 3 nM [3H]muscimol) | Emax (% of control) of [3H]muscimol binding (WT α1β3, 3 nM [3H]muscimol) | EC50 [1] [nM] | Bmax of [3H]muscimol binding isotherm in the presence of the modulator (WT α1β3) [pmol/mg] | Effect on enhancement of [3H]muscimol binding by 3α5αP and KK148 (30 μM KK150 with 0.3 μM 3α5αP or 3 μM KK148, 3 nM [3H]muscimol) | EC50 [nM] | Time constant (τ) of enhancement of [3H]muscimol binding (10 µM neurosteroid added to membranes equilibrated with 3 nM [3H]muscimol, 4°C) [min] | Bmax of [3H]muscimol binding isotherm (WT α1β3) [pmol/mg] | Kd (WT α1β3, 0.3 nM–1 μM [3H]muscimol, read-out: Kd of [3H]muscimol binding isotherm) [nM] |
| --- | --- | --- | --- | --- | --- | --- | --- | --- | --- |
| C#CCCO[C@H]1CC[C@H]2[C@@H]3CC[C@H]4CC5(CC[C@]4(C)[C@H]3CC[C@]12C)N=N5 [KK148] | 1.36 ± 0.16 | 431.0 ± 19.5 % of control | 2400 ± 360 | 10.8 ± 0.9 |  |  |  |  |  |
| C#CCCO[C@@H]1CC[C@H]2[C@@H]3CC[C@H]4CC5(CC[C@]4(C)[C@H]3CC[C@]12C)N=N5 [KK150] | 1.12 ± 0.42 | 142.5 ± 3.9 % of control | 2760 ± 2320 |  | inhibited |  |  |  |  |
| CC(=O)[C@H]1CC[C@H]2[C@@H]3CC[C@H]4C[C@@H](O)CC[C@]4(C)[C@H]3CC[C@]12C [3β5αP, epi-allopregnanolone] | 0.89 ± 0.26 | 195.6 ± 5.7 % of control |  |  |  | 260 ± 70 | 3.97 ± 0.15 |  |  |
| CC(=O)[C@H]1CC[C@H]2[C@@H]3CC[C@H]4C[C@H](O)CC[C@]4(C)[C@H]3CC[C@]12C [3α5αP, allopregnanolone] | 1.10 ± 0.14 | 374.1 ± 11.1 % of control |  | 10.3 ± 0.7 |  | 240 ± 40 |  |  |  |
| NCc1cc(=O)[nH]o1 [muscimol] |  |  |  |  |  |  |  | 12.1 ± 1.4 | 48.1 ± 4 |
